Experimental data reported in patent US20040002130A1, “Disruption of PQS synthesis using precursor analogs” (priority 2002, published 2004).

How the values were obtained:
PQS production = experiment: Effect of methyl anthranilate on PQS production (TLC of culture supernatant extracts, densitometry); assay type: cell-based, P. aeruginosa strain PAO1
Method: Bacteria from frozen stocks were grown overnight on PTSB agar plates (Ohman, et al. (1980) J. Bacteriol. 142:836-842) at 37° C. Isolated colonies were used to inoculate 10 ml of PTSB which was then incubated for 18 hr at 37° C. with vigorous shaking. Cultures were diluted 1:100 into fresh media and grown for 24 hr as above. A 400 μl aliquot of each culture was mixed with 800 μl of acidified ethyl acetate (Pesci, et al. (1999) Proc. Natl. Acad. Sci. USA 96:11229-11234), vortexed vigorously for 30 sec, then centrifuged for 10 min at 16,000×g. The organic phase was transferred to a fresh tube, and the aqueous phase was re-extracted with an additional 800 μl of solvent. The organic phases were combined, dried to completion and the solute was dissolved in 200 μl of a 1:1 mix of acidified ethyl acetate:acetonitrile. An amount of extract derived from 5 μl of culture was loaded onto the TLC plate. TLC was performed with a silica gel 60 F254 TLC plate (EM Science) that had been soaked in 5% KH2PO4 and activated at 100° C. for one hour. […]
P. aeruginosa strain PAO1 was grown in the presence of increasing amounts of methyl anthranilate, and culture supernatants were extracted with ethyl acetate and separated on TLC plates. PQS was visualized under long-wave UV light and photographed to quantify PQS densitometrically. […]

[1] = system: P. aeruginosa strain PAO1; experiment: Growth of cultures in the presence of methyl anthranilate; assay type: cell-based; settings: 0, 0.25, 0.5, 1.0, and 1.5 mM methyl anthranilate
Method: P. aeruginosa strain PAO1 was grown in the presence of increasing amounts of methyl anthranilate, and culture supernatants were extracted with ethyl acetate and separated on TLC plates. PQS was visualized under long-wave UV light and photographed to quantify PQS densitometrically. The amount of PQS present in the culture supernatant decreased as the concentration of methyl anthranilated increased, although the growth of the cultures was not affected by the presence of methyl anthranilate at the concentrations used in these experiments (0, 0.25, 0.5, 1.0, and 1.5 mM methyl anthranilate, with approximately 30% PQS being produced at 1.5 mM methyl anthranilate as compared to wild type bacateria).

COC(=O)c1ccccc1N [methyl anthranilate]
PQS being produced as compared to wild type bacteria (PQS production; 1.5 mM methyl anthranilate, strain PAO1 culture supernatant, densitometry of TLC under long-wave UV): approximately 30% | amount of PQS present in the culture supernatant (PQS production; increasing methyl anthranilate concentration (0, 0.25, 0.5, 1.0, and 1.5 mM), strain PAO1): decreased | growth of the cultures [1]: not affected
